# Measurements reported in patent US5461057A, “Hydro-ethano-indeno-pyridines” (priority 1994, dated 1995).
# pIC50: −log10 of the molar value. Where two headings read alike, the source gives them in different places.
# Key:
# [1] = tested on: histamine-induced dyspnea; test: Bronchodilator (in vivo) Guinea Pig Dyspnea; conditions: oral, one hour before histamine challenge
# Outline: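 Fasted, unanesthetized guinea pigs (250-350 g) received the test drug orally one hour before exposure to an aerosolized 0.1% histamine solution. Onset of dyspnea was recorded, and data were expressed as number tested over number survived.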
# [2] = tested on: LOX human melanoma cell adhesion to human fibronectin; test: LOX melanoma cell adhesion to fibronectin; format: cell-based; conditions: for pIC50 / inhibition at 10 µM / inhibition at 50 µM: Homo sapiens, LOX; for pIC50: read-out: LOX FN IC50; for inhibition at 10 µM: read-out: % Inhibition at 10 μM; for inhibition at 50 µM: read-out: % Inhibition at 50 μM
# Outline: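 Compound added to fibronectin-coated (140 ng/well), BSA-blocked wells before LOX cells (1×10^5/well, detached with urea/EDTA). Cells adhered 1 h at 37 °C, then washed. Adherent cells quantified by calcein AM fluorescence (485/530 nm); IC50 for adhesion inhibition.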
# [3] = Calcein cytotoxicity assay; format: cell-based; conditions: human, lox melanoma cells, calcein AM assay; for CC50 at 2 h: read-out: 2 Hr Tox LD50
# [4] = tested on: LOX human melanoma cell adhesion to polylysine; test: LOX melanoma cell adhesion to polylysine; format: cell-based; conditions: read-out: Poly Lys IC50
# ELAM-1 = ELAM-1 (Homo sapiens, UniProt P16581); test: cell-based
# Protocol: Cell adhesion to ELAM-1 was measured essentially as described previously (Pal et al., J. Biomed. Res. 2: 53, 1992). Undifferentiated HL-60 leukemia cells were prelabelled for 30 minutes with 1 μM calcein AM in DPBS without calcium or magnesium, and the cells were washed twice with the same medium before addition to 96-well plates containing monolayers of mouse L cells (5×10^4 cells/well) transfected with cDNA for the adhesion molecule ELAM-1. Adhesion was allowed to proceed for 30 minutes at room temperature before washing and quantitation of the remaining fluorescent HL-60 cells as described above.
# ELAM-1 (E-selectin) is a member of the selectin class of adhesion molecules.
# pulmonary resistance = test: Pulmonary Resistance in the Anesthetized Rat; format: in vivo; conditions: 0.5 mpk, i.v., mean of 5 animals, % decrease in pre-drug baseline resistance
# Protocol: Rats (400-500 g) anesthetized with dialurethane were surgically prepared with tracheal and esophageal catheters. These catheters were connected to pressure transducers for recording of air flow, tracheal and esophageal pressures. These pressures formed the basis for measurement of pulmonary resistance. Inhibition of pulmonary resistance is a reflection of bronchodilation.
# All compounds were tested i. v. in 5 separate animals. All data are expressed in % decrease in the pre-drug baseline resistance and each number given is the mean of the 5 animals tested.
# The model is sensitive to bronchodilator activity.
# Further information relating this test can be obtained from the following publications which are hereby incorporated by reference: Comroe et al, J. Appl. Physio. 4:439-44 (1959); Dungan et al J. Pharmacol. Exp. Therap. 164:290-301(1968); and Mead, J. et al. J. Appl. Physio. 5:779-796 (1953).
# [5] = tested on: acetic acid-induced writhing; test: Acetic Acid Writhing Test in Mice; format: in vivo, mouse; conditions: for ED50: Mus musculus, po, read-out: WRITH ED50
# Excerpt: The blockade of writhing induced by the intraperitoneal injection of acetic acid is an established experimental animal model for the screening of antinociceptive drugs (drugs which prevent the appreciation or transmission of pain sensations).
# The procedure for the Acetic Acid Writhing Test in Mice is set forth in Hendershot et al, J. Pharmacol. Exp. Therap. 125:237, (1959); Koster et al., Fed. Proc. 18:412, (1959); and international application PCT/US91/06705, filed 20 Sep. 1991, which are hereby incorporated by reference.
# The results for this test are given below in the units of mg/kg which is also abbreviated in this specification as mpk. The results for this test are given as effective doses (ED50 's).
# TBZ-induced ptosis = test: Effects on tetrabenazine (TBZ)-induced ptosis in mice; format: in vivo, mouse; conditions: for TBZ ED50: p.o.
# Excerpt: Clinically active antidepressant drugs are known to block TBZ-induced ptosis in mice (See Psychosomatic Medicine, Nodine and Moyer, Eds. Lea and Febiger, Philadelphia, 1962, pp 683-90, which is hereby incorporated by reference). Activity in this test is used to predict anti-depressant activity in man.
# The procedure for the TBZ-Induced Ptosis Test in Mice is set forth in Psychosomatic Medicine, Nodine and Moyer, Eds. Lea and Febiger, which is hereby incorporated by reference and in PCT/US91/06705, filed 20 Sep. 1991, which is mentioned above.
# (§1) The results for this test are given below as ED50 's in the units of mg/kg.
# TBZ refers to the test of effects on tetrabenazine induced ptosis in mice, p.o.;
# [6] = tested on: muricidal (mouse-killing) behavior; test: Effects on muricidal behavior in rats; format: in vivo, rat; conditions: for ED50: Rattus norvegicus, read-out: MUR ED50
# Excerpt: Blockade of muricidal (mouse-killing) behavior in rats is used as a measure of evaluating the anti-depressant activity of drugs, and the procedure for carrying out this test is set forth in Int. J. Neuro-pharmacal., 5, 405-411 (1966) are hereby incorporated by reference, and in PCT/US91/06705, filed 20 Sep. 1991, which is mentioned above.
# as §1
# MUR refers to the test on the effects on muricidal behavior in rats;
# [7] = tested on: discrete trial avoidance behavior; test: Conditioned avoidance suppression in rats; format: in vivo, rat; conditions: for minimal effective dose: Rattus norvegicus, read-out: CAR minimum effective dose (MED)
# Excerpt: See Ann. N.Y. Acad. Sci. 66,740 (1957) which is hereby incorporated by reference. The procedure for carrying out this test is set forth in Int. J. Neuro-pharmacal., 5, 405-411 (1966) which is hereby incorporated by reference and in PCT/US91/06705, filed 20 Sep. 1991, which is mentioned above.
# The results for this test are given below as minimum effecive doses (MED)in the units of mg/kg.
# As used herein, CAR refers to the conditioned avoidance suppression test in rats;
# metrazole = test: Anti-metrazole test in mice; format: in vivo, mouse; conditions: for ED50: Mus musculus, read-out: MTZ ED50
# Protocol: The anti-metrazole test in mice was carried out as described in Everett et al, J. Pharmacol. Exp. Therap. 81:402-407 (1944); which is hereby incorporated by reference.
# The results for this test are given below as ED50's in the units of mg/kg.
# Sequence of ELAM-1 (P16581 22-610): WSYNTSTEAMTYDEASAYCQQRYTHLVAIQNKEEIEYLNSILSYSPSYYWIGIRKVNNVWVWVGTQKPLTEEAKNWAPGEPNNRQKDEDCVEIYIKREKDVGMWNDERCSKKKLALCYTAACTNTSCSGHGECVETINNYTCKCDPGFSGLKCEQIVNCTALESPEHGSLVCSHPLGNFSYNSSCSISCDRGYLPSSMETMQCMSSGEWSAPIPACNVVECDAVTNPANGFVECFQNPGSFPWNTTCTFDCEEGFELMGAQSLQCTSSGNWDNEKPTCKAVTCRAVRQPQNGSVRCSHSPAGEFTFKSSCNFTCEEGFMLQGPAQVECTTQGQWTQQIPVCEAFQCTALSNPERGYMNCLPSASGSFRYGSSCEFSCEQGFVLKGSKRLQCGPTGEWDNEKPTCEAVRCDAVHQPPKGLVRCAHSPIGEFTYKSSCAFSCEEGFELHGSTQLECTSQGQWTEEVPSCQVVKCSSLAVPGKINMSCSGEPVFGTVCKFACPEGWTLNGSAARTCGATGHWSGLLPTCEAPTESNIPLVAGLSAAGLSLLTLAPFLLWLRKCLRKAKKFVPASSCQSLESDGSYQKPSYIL
Structure (SMILES),DYSP survivors ([1]; 100 mg/kg),CC50 at 2 h [3] [µM],pIC50 [4],ED50 [5] [mg/kg],ED50 [6] [mg/kg],minimal effective dose [7] [mg/kg],ED50 (metrazole) [mg/kg],TBZ ED50 (TBZ-induced ptosis) [mg/kg],% Inhibition at 10 μM ([2]; 10 μM) [%],% Inhibition at 50 μM ([2]; 50 μM) [%],further results
CN1C2CCC1C1C(=C(c3ccc(Cl)cc3)c3cc(F)ccc31)C2 (stereo not shown) [Compound A],2/3,17.4,4.93,–,–,–,–,–,–,–,"pIC50 ([2]; 1 h): 5.32; inhibition at 10 µM [2]: 81.1%; inhibition at 50 µM [2]: 101%; CC50 at 6 h ([3]; 6 hours, read-out: 6 Hr Tox LD50): 5.9 µM; pIC50 (ELAM-1): 4.66"
COc1ccc(C2(O)c3ccccc3C3C4CCC(CC32)N4C)cc1 (stereo not shown) [PP],–,–,–,> 30,> 10,> 25,> 30,–,–,–,"responders at 50 mg/kg ([1]; Cavia porcellus, 1 h, 50 mg/kg, read-out: DYSP survivors (converted)): 0%; inhibition in vivo at 0.5 mg/kg (pulmonary resistance; Rattus norvegicus, iv, read-out: Pulmonary Resistance in Rats, % Inhibition): 62%; ED50 (TBZ-induced ptosis; Mus musculus, po): > 30 mg/kg; inhibition at 10 µM ([2]; 10 μM): 4.9%; inhibition at 50 µM ([2]; 50 μM): 21.9%"
CN1C2CCC1C1C(=C(c3ccccc3)c3ccccc31)C2 (stereo not shown) [T],2/3,135,3.94,17.3,> 10,> 25,> 30,5.7,2.2,89.3,"DYSP survivors ([1]; 50 mg/kg): 0/3; Pulmonary Resistance in Rats, % Inhibition (pulmonary resistance): 46%; pIC50 ([2]; Table 4, 1 hour adhesion): 4.71"
CN1C2CCC1C1C(=C(c3ccccc3)c3ccccc31)C2 (stereo not shown) [U],–,–,–,–,–,–,–,1.3,-18.7,21.0,WRITH ED50 ([5]; p.o.): > 30 mg/kg; MUR ED50 [6]: 14.1 mg/kg; CAR minimum effective dose (MED) [7]: > 25 mg/kg; MTZ ED50 (metrazole): > 30 mg/kg
